# From ChEMBL document CHEMBL1138583, “Pharmacophore modeling study based on known spleen tyrosine kinase inhibitors together with virtual screening for identifying novel inhibitors” (Bioorg Med Chem Lett, 2009)
# How the values were obtained:
# [1] = molecular target: T1, Tyrosine-protein kinase SYK (Homo sapiens, UniProt P43405); assay: Inhibition of recombinant Syk at 10 uM
# [2] = molecular target: T1, Tyrosine-protein kinase SYK; assay: Inhibition of recombinant Syk
Structure (SMILES),inhibition [1] [%],IC50 [2] [nM]
Cc1cc(C)cc(Nc2nccc(-c3nc(C)cs3)n2)c1,–,56
COc1cc(Nc2nc(N[C@@H]3CCCC[C@@H]3N)n3cnnc3c2C(N)=O)cc(OC)c1,–,9
COc1cc(Nc2nc(NC3CCCC[C@H]3N)n3ncnc3c2C(N)=O)cc(OC)c1 (stereo partly drawn),–,1
NCCCNc1ncc(C(N)=O)c(Nc2cccc(C(F)(F)F)c2)n1,–,230
Cc1ncc(C(N)=O)c(Nc2cccc(C(F)(F)F)c2)n1,–,5000
NC(=O)c1cncnc1Nc1cccc(C(F)(F)F)c1,–,5000
Cc1cc(Nc2nn(C(C)C)c(=O)c3cc(N4CCOCC4)ccc23)[nH]n1,–,1100
COc1cc(/C=C/[N+](=O)[O-])ccc1OC(=O)c1ccccc1,–,3800
N#Cc1cccc(Nc2nc(NCCN)ncc2C(N)=O)c1,–,110
Cc1cc(Nc2nccc(-c3nc(C)c(CCO)s3)n2)cc(C(F)(F)F)c1,–,22
COc1cc(Nc2nc(N[C@@H]3CCCC[C@@H]3N)n3ncnc3c2C(N)=O)cc(OC)c1,–,4
Cc1cc(C)cc(Nc2nc(CC3CCCC[C@H]3N)n3ccnc3c2C(N)=O)c1 (stereo partly drawn),–,2.5
CC(C)Oc1cccc(Nc2nc(NCCN)ncc2C(N)=O)c1,–,72
Cc1cc(Nc2nn(C(C)C)c(=O)c3cc(N4CCN(C)CC4)ccc23)[nH]n1,–,5360
Cc1cc(Nc2nccc(-c3nccs3)n2)cc(C(F)(F)F)c1,–,110
CN(C)CCN(C)c1ncc(C(N)=O)c(Nc2cccc(C(F)(F)F)c2)n1,–,10000
CCc1cc(NCC(C)(C)N)n2nc(Nc3cc(OC)cc(OC)c3)c(C(N)=O)c2n1,–,3890
Cc1cc(C)cc(Nc2nccc(-c3nc(C)c(CCO)s3)n2)c1,–,32
Cc1ccc(C)c(Nc2nccc(-c3nccs3)n2)c1,–,1820
OCCCOc1cc(Nc2nccc(-c3nccs3)n2)cc(C(F)(F)F)c1,–,26
COc1c(C[C@@H](C)OC(=O)Oc2ccc(O)cc2)c2c3c(C[C@@H](C)OC(=O)c4ccccc4)c(OC)c(=O)c4c(O)cc(OC)c(c5c(OC)cc(O)c(c1=O)c52)c43 [CALPHOSTIN C],–,1100
NCCCNc1nc(-c2cccc(C(F)(F)F)c2)cc2ncccc12,–,830
COc1cc(Nc2nc(NC3CCCCC[C@H]3N)n3ccnc3c2C(N)=O)cc(OC)c1 (stereo partly drawn),–,1.6
FC(F)(F)c1ccc(Nc2nccc(-c3nccs3)n2)cc1,–,500
N#C/C(=C\c1ccc(O)c(O)c1)C(N)=S [TYRPHOSTIN 47],–,38000
COc1cc(/C=C/[N+](=O)[O-])ccc1O,–,76000
c1cc(-c2nccs2)nc(Nc2ccc(OCC3CCCCC3)cc2)n1,–,2000
COc1cc(Nc2nc(NC3CCCC[C@H]3N)n3cnnc3c2C(N)=O)cc(OC)c1 (stereo partly drawn),–,3.7
COc1cc(Nc2nc(NC3CCCC[C@H]3N)n3nc(C)nc3c2C(N)=O)cc(OC)c1 (stereo partly drawn),–,11.2

# Other lines, results leading:
inhibition [1] [%],IC50 [2] [nM],Structure (SMILES)
51,–,O=C1NC(=O)N(c2cccc(Cl)c2)C(=O)/C1=C\Nc1ccc(Cl)cc1[N+](=O)[O-]
–,7,COc1cc(Nc2nc(NC3CCCC[C@H]3N)n3nc(-c4cccc(O)c4)nc3c2C(N)=O)cc(OC)c1 (stereo partly drawn)
–,92,CC(C)c1cccc(Nc2nc(NCCN)ncc2C(N)=O)c1
–,894,COCCOc1ccc2c(Nc3cc(C)[nH]n3)nn(C(C)C)c(=O)c2c1
63,–,COc1cccc2cc(C(N)=O)/c(=N/c3ccc(-c4ccccc4)cc3)oc12
–,53,CCc1cccc(Nc2nc(NCCN)ncc2C(N)=O)c1
–,500,c1c[nH]c(-c2ccnc(Nc3ccc(Oc4ccc5c(c4)OCO5)cc3)n2)c1
–,310,CN(C)c1ccc(-c2cc3ncccc3c(NC(C)(C)CN)n2)cc1
–,500,c1ccn(CCOc2ccc(Nc3nccc(-c4nccs4)n3)cc2)c1
–,81,CCOc1cccc(Nc2nc(NCCN)ncc2C(N)=O)c1
–,2000,COC(=O)c1ccc(COc2ccc(Nc3nccc(-c4nccs4)n3)cc2)cc1
–,2000,O=[N+]([O-])c1ccccc1COc1ccc(Nc2nccc(-c3nccs3)n2)cc1
–,21,Cc1cc(C)cc(Nc2nc(N[C@H](CN)c3ccccc3)n3ccnc3c2C(N)=O)c1
–,500,CS(=O)(=O)c1cccc(Oc2cccc(Nc3nccc(-c4nccs4)n3)c2)c1
–,50,Cc1cccc(Nc2nc(N[C@@H]3CCCC[C@@H]3N)ccc2C(N)=O)c1
–,1000,Fc1ccc(Nc2nccc(-c3nccs3)n2)cc1
–,280,NCCNc1ncc(C(N)=O)c(Nc2ccccc2)n1
–,2000,c1cc(COc2ccc(Nc3nccc(-c4nccs4)n3)cc2)ccn1
–,1000,c1ccc(Oc2cccc(Nc3nccc(-c4nccs4)n3)c2)cc1
–,2000,c1ccc2cc(Nc3nccc(-c4nccs4)n3)ccc2c1
–,6530,Cc1cc(Nc2nn(CC3CCCNC3)c(=O)c3ccccc23)[nH]n1 (stereo not drawn)
–,500,Oc1ccc(Nc2nccc(-c3nccs3)n2)cc1
–,500,c1cncc(Oc2cccc(Nc3nccc(-c4nccs4)n3)c2)c1
–,1000,c1ccc(COc2ccc(Nc3nccc(-c4nccs4)n3)cc2)cc1
–,500,Nc1ccccc1COc1ccc(Nc2nccc(-c3nccs3)n2)cc1
–,500,c1ccc(COc2cccc(Nc3nccc(-c4nccs4)n3)c2)cc1
–,4000,COC(=O)c1ccccc1-c1ccc(/C=C2/SC(=S)N(Cc3ccccc3)C2=O)o1
–,4000,Cc1c(/C=C2/C(=O)Nc3ccc(S(N)(=O)=O)cc32)c2ccccc2n1C
–,4000,COc1ccc(CNS(=O)(=O)c2ccc3c(c2)/C(=C/c2cn(C)c4ccc(OC)cc24)C(=O)N3)cc1
